{
  "source": "ChEMBL document CHEMBL1150977",
  "about": "“A quantitative analysis of kinase inhibitor selectivity” (Nat Biotechnol, 2008)",
  "key": {"[1]": {"target": "Fibroblast growth factor receptor 2 (Homo sapiens, UniProt P21802)", "sequence (P21802 whole entry)": "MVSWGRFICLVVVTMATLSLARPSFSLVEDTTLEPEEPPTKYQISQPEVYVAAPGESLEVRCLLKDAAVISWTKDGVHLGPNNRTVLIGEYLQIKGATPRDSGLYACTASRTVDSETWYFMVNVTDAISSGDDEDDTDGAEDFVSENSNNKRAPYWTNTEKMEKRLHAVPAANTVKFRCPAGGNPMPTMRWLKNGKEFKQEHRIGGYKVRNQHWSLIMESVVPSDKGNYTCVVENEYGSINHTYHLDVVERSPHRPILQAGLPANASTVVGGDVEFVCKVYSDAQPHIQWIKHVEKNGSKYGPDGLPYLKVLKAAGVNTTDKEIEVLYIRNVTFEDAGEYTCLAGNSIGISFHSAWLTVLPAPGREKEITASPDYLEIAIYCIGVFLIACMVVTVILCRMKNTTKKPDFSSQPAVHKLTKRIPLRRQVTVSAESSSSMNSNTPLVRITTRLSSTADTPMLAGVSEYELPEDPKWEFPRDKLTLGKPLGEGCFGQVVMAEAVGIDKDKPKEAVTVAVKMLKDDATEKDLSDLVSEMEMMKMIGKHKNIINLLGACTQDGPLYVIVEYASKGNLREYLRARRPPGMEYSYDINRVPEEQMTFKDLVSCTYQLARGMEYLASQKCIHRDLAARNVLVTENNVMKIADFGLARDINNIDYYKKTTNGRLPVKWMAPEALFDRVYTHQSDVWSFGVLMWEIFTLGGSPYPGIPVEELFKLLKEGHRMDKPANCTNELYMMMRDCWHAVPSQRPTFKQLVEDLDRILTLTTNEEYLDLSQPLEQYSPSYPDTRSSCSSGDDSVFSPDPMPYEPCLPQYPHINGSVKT"}, "[2]": {"target": "T1, Inhibitor of nuclear factor kappa-B kinase subunit epsilon (Homo sapiens, UniProt Q14164)", "T1 sequence (Q14164 whole entry)": "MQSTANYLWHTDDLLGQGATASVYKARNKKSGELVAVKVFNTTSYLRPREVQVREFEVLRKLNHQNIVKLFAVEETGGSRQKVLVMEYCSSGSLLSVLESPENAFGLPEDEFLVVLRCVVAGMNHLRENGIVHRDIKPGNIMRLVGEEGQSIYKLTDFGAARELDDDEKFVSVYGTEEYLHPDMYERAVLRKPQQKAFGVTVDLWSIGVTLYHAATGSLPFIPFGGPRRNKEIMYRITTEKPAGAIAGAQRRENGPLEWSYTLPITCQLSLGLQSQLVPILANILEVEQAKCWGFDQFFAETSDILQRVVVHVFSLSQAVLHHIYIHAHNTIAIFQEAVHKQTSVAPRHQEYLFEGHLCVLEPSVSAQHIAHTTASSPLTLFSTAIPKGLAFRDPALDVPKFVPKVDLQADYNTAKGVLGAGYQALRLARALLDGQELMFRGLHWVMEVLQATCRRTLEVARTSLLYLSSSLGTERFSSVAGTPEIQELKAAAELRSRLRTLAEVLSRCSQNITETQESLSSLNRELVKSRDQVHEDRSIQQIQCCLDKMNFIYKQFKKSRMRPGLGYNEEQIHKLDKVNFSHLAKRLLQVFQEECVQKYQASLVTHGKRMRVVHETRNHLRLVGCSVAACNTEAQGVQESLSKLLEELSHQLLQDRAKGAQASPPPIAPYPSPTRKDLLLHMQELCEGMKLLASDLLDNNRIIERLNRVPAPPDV"}, "[3]": {"target": "ALK tyrosine kinase receptor (Homo sapiens, UniProt Q9UM73)", "sequence (Q9UM73 whole entry)": "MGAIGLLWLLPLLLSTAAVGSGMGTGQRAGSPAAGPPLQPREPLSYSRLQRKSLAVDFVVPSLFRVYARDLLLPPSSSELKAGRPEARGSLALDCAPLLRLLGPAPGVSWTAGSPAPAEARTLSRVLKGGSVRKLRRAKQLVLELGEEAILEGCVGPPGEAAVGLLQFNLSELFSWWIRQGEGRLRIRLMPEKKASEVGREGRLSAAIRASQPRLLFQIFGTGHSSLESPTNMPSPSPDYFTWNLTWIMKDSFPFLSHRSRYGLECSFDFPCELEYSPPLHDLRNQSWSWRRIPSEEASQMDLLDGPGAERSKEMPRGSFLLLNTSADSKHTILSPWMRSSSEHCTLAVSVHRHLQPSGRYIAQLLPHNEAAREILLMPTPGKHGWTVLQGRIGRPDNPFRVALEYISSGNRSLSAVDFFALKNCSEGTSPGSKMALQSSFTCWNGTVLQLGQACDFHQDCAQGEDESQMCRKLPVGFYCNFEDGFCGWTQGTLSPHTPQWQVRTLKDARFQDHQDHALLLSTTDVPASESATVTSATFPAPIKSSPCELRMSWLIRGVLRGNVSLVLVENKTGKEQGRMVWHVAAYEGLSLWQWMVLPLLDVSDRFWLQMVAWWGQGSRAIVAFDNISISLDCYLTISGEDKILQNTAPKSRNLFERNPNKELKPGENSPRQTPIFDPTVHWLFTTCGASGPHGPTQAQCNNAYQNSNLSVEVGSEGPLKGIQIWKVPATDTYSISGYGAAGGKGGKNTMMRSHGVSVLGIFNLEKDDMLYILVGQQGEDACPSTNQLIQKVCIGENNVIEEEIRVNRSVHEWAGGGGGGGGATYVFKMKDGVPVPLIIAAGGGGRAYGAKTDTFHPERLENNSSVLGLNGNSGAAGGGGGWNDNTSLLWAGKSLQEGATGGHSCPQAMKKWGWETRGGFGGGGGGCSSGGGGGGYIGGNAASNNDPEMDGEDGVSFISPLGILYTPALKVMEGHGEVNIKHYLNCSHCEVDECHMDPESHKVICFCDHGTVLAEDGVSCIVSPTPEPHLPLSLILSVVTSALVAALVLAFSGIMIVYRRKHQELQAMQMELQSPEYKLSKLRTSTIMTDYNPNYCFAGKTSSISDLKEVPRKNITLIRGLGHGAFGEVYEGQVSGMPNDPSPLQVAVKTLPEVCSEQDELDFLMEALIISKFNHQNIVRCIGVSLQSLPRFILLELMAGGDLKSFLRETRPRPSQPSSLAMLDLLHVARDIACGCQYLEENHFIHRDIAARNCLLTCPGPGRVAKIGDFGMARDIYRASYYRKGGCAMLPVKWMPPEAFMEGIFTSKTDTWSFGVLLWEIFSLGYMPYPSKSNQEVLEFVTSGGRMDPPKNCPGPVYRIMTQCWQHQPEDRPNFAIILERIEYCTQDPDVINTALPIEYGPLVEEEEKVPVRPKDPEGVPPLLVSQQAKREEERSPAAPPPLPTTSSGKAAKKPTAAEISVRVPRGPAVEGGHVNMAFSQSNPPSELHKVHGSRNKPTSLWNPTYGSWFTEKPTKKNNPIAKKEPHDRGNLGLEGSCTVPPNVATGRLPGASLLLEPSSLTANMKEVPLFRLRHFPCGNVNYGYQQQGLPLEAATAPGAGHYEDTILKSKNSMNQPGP"}, "[4]": {"target": "Death-associated protein kinase 2 (Homo sapiens, UniProt Q9UIK4)", "sequence (Q9UIK4 whole entry)": "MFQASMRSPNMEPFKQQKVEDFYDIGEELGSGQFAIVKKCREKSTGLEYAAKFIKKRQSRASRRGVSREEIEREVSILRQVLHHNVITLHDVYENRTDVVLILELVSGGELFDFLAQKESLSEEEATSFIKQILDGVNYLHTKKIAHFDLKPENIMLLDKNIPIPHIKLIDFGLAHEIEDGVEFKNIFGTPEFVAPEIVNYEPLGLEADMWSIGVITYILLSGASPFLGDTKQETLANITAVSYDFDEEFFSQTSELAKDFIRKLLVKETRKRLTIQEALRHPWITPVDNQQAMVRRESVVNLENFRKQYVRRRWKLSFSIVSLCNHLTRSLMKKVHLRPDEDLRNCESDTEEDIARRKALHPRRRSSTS"}, "[5]": {"target": "T2, Ephrin type-B receptor 4 (Homo sapiens, UniProt P54760)", "T2 sequence (P54760 whole entry)": "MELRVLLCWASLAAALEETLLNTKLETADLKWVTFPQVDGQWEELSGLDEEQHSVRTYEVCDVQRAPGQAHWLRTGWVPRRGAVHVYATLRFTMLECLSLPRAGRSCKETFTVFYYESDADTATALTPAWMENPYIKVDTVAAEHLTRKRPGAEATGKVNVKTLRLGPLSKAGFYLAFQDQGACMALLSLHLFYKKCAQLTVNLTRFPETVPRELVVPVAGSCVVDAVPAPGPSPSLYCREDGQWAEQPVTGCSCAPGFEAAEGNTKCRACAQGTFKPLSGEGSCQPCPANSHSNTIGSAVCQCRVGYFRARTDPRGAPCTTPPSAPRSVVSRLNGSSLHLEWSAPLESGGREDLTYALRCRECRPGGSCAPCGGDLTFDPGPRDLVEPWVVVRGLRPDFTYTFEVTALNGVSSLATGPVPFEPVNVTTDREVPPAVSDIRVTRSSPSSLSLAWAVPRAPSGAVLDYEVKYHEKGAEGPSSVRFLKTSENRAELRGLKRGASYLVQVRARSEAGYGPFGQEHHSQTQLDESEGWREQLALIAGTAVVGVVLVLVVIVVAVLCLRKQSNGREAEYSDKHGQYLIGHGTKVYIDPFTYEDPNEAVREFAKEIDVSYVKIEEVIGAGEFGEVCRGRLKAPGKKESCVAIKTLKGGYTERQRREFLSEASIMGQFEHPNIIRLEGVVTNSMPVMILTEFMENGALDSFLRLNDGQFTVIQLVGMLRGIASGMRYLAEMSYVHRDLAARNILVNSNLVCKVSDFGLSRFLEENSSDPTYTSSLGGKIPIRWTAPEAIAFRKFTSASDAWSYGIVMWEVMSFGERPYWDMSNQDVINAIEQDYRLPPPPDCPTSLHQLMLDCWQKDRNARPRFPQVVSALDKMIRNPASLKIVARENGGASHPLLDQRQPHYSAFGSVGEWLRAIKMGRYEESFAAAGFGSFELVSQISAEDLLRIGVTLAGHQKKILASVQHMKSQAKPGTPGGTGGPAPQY"}, "[6]": {"target": "Wee1-like protein kinase (Homo sapiens, UniProt P30291)", "sequence (P30291 whole entry)": "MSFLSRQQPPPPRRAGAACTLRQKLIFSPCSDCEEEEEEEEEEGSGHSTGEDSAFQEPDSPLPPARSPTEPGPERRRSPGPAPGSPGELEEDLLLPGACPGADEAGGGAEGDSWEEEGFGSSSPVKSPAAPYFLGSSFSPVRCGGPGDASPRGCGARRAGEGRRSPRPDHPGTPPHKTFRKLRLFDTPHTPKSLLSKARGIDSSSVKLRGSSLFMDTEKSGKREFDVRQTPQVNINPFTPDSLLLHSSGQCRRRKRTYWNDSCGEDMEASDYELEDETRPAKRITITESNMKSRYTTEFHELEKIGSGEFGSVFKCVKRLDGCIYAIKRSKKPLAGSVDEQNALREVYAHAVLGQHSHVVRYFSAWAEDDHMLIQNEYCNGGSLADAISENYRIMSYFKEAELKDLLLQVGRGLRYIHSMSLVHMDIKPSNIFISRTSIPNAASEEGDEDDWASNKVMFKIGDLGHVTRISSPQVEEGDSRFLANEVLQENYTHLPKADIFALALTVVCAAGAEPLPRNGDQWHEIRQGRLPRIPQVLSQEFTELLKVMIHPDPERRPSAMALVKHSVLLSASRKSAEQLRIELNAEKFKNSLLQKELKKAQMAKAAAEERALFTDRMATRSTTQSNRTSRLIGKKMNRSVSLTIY"}, "[7]": {"target": "Atypical kinase COQ8A, mitochondrial (Homo sapiens, UniProt Q8NI60)", "sequence (Q8NI60 whole entry)": "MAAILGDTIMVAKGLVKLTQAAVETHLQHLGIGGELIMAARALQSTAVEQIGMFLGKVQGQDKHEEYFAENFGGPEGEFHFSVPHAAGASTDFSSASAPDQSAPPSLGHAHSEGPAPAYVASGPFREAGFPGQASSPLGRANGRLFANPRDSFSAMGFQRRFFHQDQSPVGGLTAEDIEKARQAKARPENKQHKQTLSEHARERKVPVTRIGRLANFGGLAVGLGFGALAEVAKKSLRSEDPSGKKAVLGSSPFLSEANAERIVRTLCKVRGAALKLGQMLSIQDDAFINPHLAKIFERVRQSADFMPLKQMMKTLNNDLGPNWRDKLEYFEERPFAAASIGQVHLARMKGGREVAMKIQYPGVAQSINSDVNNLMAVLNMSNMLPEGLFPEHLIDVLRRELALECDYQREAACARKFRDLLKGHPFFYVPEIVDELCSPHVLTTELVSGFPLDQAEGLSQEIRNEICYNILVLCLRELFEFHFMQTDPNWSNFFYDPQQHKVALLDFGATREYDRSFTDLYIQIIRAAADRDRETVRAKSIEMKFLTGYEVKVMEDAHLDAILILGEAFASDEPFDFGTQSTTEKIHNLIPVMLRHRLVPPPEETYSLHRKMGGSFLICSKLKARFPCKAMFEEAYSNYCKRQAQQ"}, "[8]": {"target": "Fibroblast growth factor receptor 1 (Homo sapiens, UniProt P11362)", "sequence (P11362 whole entry)": "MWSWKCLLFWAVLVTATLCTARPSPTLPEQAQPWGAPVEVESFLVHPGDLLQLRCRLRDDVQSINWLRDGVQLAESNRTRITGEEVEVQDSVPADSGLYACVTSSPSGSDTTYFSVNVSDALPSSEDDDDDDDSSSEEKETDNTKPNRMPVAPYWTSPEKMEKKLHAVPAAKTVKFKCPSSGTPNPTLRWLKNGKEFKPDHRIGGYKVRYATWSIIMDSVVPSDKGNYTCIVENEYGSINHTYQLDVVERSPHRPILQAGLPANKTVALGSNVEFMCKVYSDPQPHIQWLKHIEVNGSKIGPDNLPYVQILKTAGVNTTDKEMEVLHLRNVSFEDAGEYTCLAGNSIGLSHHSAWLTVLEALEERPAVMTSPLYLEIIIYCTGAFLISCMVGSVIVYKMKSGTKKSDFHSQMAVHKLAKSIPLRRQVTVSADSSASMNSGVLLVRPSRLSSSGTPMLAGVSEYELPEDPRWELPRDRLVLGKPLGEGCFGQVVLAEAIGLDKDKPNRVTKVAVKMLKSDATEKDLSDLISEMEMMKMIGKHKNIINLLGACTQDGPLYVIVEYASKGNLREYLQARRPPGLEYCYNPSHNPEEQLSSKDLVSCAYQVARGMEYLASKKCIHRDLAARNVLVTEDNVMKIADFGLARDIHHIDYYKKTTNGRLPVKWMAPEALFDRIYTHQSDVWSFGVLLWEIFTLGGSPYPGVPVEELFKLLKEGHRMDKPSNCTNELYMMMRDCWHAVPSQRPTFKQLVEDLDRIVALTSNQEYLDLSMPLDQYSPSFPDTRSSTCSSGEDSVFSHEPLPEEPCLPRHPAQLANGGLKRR"}, "[9]": {"target": "T3, Serine/threonine-protein kinase DCLK2 (Homo sapiens, UniProt Q8N568)", "T3 sequence (Q8N568 whole entry)": "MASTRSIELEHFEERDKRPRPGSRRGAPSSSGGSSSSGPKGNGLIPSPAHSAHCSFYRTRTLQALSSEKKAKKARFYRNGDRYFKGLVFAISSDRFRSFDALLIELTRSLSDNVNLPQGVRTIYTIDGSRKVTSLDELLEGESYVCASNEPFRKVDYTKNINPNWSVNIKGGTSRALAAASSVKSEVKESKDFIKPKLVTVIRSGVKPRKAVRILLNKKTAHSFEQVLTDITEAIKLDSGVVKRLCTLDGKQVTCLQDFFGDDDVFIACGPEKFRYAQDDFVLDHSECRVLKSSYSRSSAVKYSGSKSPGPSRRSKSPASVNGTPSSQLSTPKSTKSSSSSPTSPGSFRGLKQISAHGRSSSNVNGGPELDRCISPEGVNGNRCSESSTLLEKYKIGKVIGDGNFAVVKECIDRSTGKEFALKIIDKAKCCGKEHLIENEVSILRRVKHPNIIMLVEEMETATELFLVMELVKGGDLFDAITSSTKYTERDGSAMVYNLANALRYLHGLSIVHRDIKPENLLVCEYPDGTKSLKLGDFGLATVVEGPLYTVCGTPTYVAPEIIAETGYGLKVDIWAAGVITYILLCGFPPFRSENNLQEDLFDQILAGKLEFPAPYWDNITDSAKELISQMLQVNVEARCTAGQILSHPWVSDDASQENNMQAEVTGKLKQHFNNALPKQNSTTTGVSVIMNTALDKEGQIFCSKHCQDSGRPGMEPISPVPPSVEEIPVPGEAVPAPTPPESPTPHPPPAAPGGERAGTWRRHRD"}, "[10]": {"target": "Tyrosine-protein kinase JAK2 (Homo sapiens, UniProt O60674)"}},
  "data": [
    {"smiles": "COCC(=O)NC/C=C/c1ccc2ncnc(Nc3ccc(Oc4ccc(C)nc4)c(C)c3)c2c1", "note": "[CP-724714]", "values": [
      {"measurement": "Kd", "setting": "[1]", "value": "> 10", "unit": "µM"},
      {"measurement": "Kd", "setting": "[2]", "value": "> 10", "unit": "µM"},
      {"measurement": "Kd", "setting": "[3]", "value": "> 10", "unit": "µM"},
      {"measurement": "Kd", "setting": "[4]", "value": "> 10", "unit": "µM"},
      {"measurement": "Kd", "setting": "[5]", "value": "> 10", "unit": "µM"},
      {"measurement": "Kd", "setting": "[6]", "value": "> 10", "unit": "µM"},
      {"measurement": "Kd", "setting": "[7]", "value": "> 10", "unit": "µM"},
      {"measurement": "Kd", "setting": "[8]", "value": "> 10", "unit": "µM"},
      {"measurement": "Kd", "setting": "[9]", "value": "> 10", "unit": "µM"},
      {"measurement": "Kd", "setting": "[10]", "value": "> 10", "unit": "µM"}
    ]},
    {"smiles": "Nc1nc(Nc2ccc(S(N)(=O)=O)cc2)nn1C(=O)c1c(F)cccc1F", "note": "[JNJ-7706621]", "values": [
      {"measurement": "Kd", "setting": "[4]", "value": "> 10", "unit": "µM"},
      {"measurement": "Kd", "setting": "[5]", "value": "> 10", "unit": "µM"},
      {"measurement": "Kd", "setting": "[6]", "value": "> 10", "unit": "µM"},
      {"measurement": "Kd", "setting": "[9]", "value": 4.5, "unit": "µM"}
    ]},
    {"smiles": "CCOc1cc2ncc(C#N)c(Nc3ccc(F)c(Cl)c3)c2cc1NC(=O)/C=C/CN(C)C", "note": "[PELITINIB]", "values": [
      {"measurement": "Kd", "setting": "[1]", "value": "> 10", "unit": "µM"},
      {"measurement": "Kd", "setting": "[2]", "value": "> 10", "unit": "µM"},
      {"measurement": "Kd", "setting": "[3]", "value": 7.1, "unit": "µM"},
      {"measurement": "Kd", "setting": "[4]", "value": "> 10", "unit": "µM"},
      {"measurement": "Kd", "setting": "[5]", "value": 2.8, "unit": "µM"},
      {"measurement": "Kd", "setting": "[7]", "value": "> 10", "unit": "µM"},
      {"measurement": "Kd", "setting": "[8]", "value": "> 10", "unit": "µM"},
      {"measurement": "Kd", "setting": "[9]", "value": "> 10", "unit": "µM"},
      {"measurement": "Kd", "setting": "[10]", "value": "> 10", "unit": "µM"}
    ]},
    {"smiles": "Oc1ccc(-c2nc(-c3ccncc3)c(-c3ccc(F)cc3)[nH]2)cc1", "note": "[SB-202190]", "values": [
      {"measurement": "Kd", "setting": "[1]", "value": "> 10", "unit": "µM"},
      {"measurement": "Kd", "setting": "[2]", "value": "> 10", "unit": "µM"},
      {"measurement": "Kd", "setting": "[3]", "value": "> 10", "unit": "µM"},
      {"measurement": "Kd", "setting": "[4]", "value": "> 10", "unit": "µM"},
      {"measurement": "Kd", "setting": "[5]", "value": "> 10", "unit": "µM"},
      {"measurement": "Kd", "setting": "[6]", "value": "> 10", "unit": "µM"},
      {"measurement": "Kd", "setting": "[7]", "value": "> 10", "unit": "µM"},
      {"measurement": "Kd", "setting": "[8]", "value": "> 10", "unit": "µM"},
      {"measurement": "Kd", "setting": "[9]", "value": "> 10", "unit": "µM"},
      {"measurement": "Kd", "setting": "[10]", "value": "> 10", "unit": "µM"}
    ]},
    {"smiles": "NC(=O)c1ccc(-c2nc(-c3ccc4c(c3)OCO4)c(-c3ccccn3)[nH]2)cc1", "note": "[SB-431542]", "values": [
      {"measurement": "Kd", "setting": "[1]", "value": "> 10", "unit": "µM"},
      {"measurement": "Kd", "setting": "[2]", "value": "> 10", "unit": "µM"},
      {"measurement": "Kd", "setting": "[3]", "value": "> 10", "unit": "µM"},
      {"measurement": "Kd", "setting": "[4]", "value": "> 10", "unit": "µM"},
      {"measurement": "Kd", "setting": "[5]", "value": "> 10", "unit": "µM"},
      {"measurement": "Kd", "setting": "[6]", "value": "> 10", "unit": "µM"},
      {"measurement": "Kd", "setting": "[7]", "value": "> 10", "unit": "µM"},
      {"measurement": "Kd", "setting": "[8]", "value": "> 10", "unit": "µM"},
      {"measurement": "Kd", "setting": "[9]", "value": "> 10", "unit": "µM"},
      {"measurement": "Kd", "setting": "[10]", "value": "> 10", "unit": "µM"}
    ]}
  ]
}
